Experimental findings from article PMC3192013 (ChemMedChem, 2011) are described below.

Where only a bound is given, the exact number is not on record here.

The subject of the first test is Stat3 (Stat3–Stat3:DNA complex, EMSA). The test is described as follows: EMSA, Stat3-Stat3:DNA disruption. It is filed as biochemical. Conditions: nuclear extract. On the technique in general: Mobility shift assays separate free from complexed probe on a gel.
With `Cc1ccc(S(=O)(=O)N(C)CC(=O)N(Cc2ccc(C#N)cc2)c2ccc(C(=O)O)c(O)c2)cc1` [27c, SF-1-073], the IC50 turned out to be 260 ± 47 µM.

`Cc1ccc(S(=O)(=O)N(C)CC(=O)N(CC2CCCCC2)c2ccc(C(=O)O)c(O)c2)cc1` [27e, 27 e]: the IC50 is greater than 300 µM.

Regarding `Cc1ccc(S(=O)(=O)N(C)CC(=O)N(Cc2ccc(C(C)(C)C)cc2)c2ccc(C(=O)O)c(O)c2)cc1` [27f, SF-1-068], the IC50 was 194 ± 47 µM.

As to `Cc1ccc(S(=O)(=O)N(C)CC(=O)N(CC2CCN(C(=O)OC(C)(C)C)CC2)c2ccc(C(=O)O)c(O)c2)cc1` [27jb, 27 jb], the IC50 is greater than 300 µM.

`Cc1ccc(S(=O)(=O)N(C)CC(=O)N(CC2CCN(c3ccc(C#N)cc3)CC2)c2ccc(C(=O)O)c(O)c2)cc1` [27jc, 27 jc] displayed an IC50 greater than 300 µM.

As to `Cc1ccc(S(=O)(=O)N(C)CC(=O)N(CC2CCN(c3ncccn3)CC2)c2ccc(C(=O)O)c(O)c2)cc1` [27jd, 27 jd], the IC50 is greater than 300 µM.

Regarding `Cc1ccc(S(=O)(=O)N(C)CC(=O)N(Cc2ccc(C3CCN(C(=O)C(F)(F)F)CC3)cc2)c2ccc(C(=O)O)c(O)c2)cc1` [27ka, 27 ka], the IC50 is greater than 300 µM.

The compound `Cc1ccc(S(=O)(=O)N(C)CC(=O)N(Cc2ccc(C3CCNCC3)cc2)c2ccc(C(=O)O)c(O)c2)cc1` [27kb, 27 kb] registered an IC50 greater than 300 µM.

`Cc1ccc(S(=O)(=O)N(C)CC(=O)N(Cc2ccc(C3CCN(C(=O)OC(C)(C)C)CC3)cc2)c2ccc(C(=O)O)c(O)c2)cc1` [27kc, 27 kc] displayed an IC50 greater than 300 µM.

`Cc1ccc(S(=O)(=O)N(C)CC(=O)N(Cc2ccc(C3CCN(c4ccc(C#N)cc4)CC3)cc2)c2ccc(C(=O)O)c(O)c2)cc1` [27kd, 27 kd] showed an IC50 of 45 ± 12 µM.

Compound `Cc1ccc(S(=O)(=O)N(C)CC(=O)N(Cc2ccc(C3CCN(S(=O)(=O)c4ccc(C#N)cc4)CC3)cc2)c2ccc(C(=O)O)c(O)c2)cc1` [27kg, 27 kg] came in with an IC50 of 50 ± 15 µM.

For `Cc1ccc(S(=O)(=O)NCC(=O)Nc2ccc(C(=O)O)c(O)c2)cc1` [compound 9, SF-1-082], the IC50 was greater than 300 µM.

Compound `Cc1ccc(S(=O)(=O)N(C)CC(=O)Nc2ccc(C(=O)O)c(O)c2)cc1` [compound 10, 10] returned an IC50 greater than 300 µM.

Regarding `Cc1ccc(S(=O)(=O)N(CC(=O)Nc2ccc(C(=O)O)c(O)c2)C(=O)OC(C)(C)C)cc1` [compound 11, 11], the IC50 was greater than 300 µM.

Compound `Cc1ccc(S(=O)(=O)OCC(=O)N(Cc2ccccc2)c2ccc(C(=O)O)c(O)c2)cc1` [compound 12, SF-1-120] displayed an IC50 greater than 300 µM.

As for `Cc1ccc(S(=O)(=O)NCC(=O)N(Cc2ccccc2)c2ccc(C(=O)O)c(O)c2)cc1` [compound 13, 13], the IC50 is greater than 300 µM.

For `Cc1ccc(S(=O)(=O)N(CC(=O)N(Cc2ccccc2)c2ccc(C(=O)O)c(O)c2)C(=O)OC(C)(C)C)cc1` [compound 15, 15], the IC50 was greater than 300 µM.

`Cc1ccc(S(=O)(=O)NCC(=O)N(Cc2ccc(C3CCCCC3)cc2)c2ccc(C(=O)O)c(O)c2)cc1` [compound 41, SF-1-083]: the IC50 turned out to be 95 ± 9 µM.

The same test, now with this note: nuclear extract; Table 2 prints 295 ± 35.
With `Cc1ccc(S(=O)(=O)N(C)CC(=O)N(Cc2ccccc2)c2ccc(C(=O)O)c(O)c2)cc1` [compound 14, SF-1-062], the IC50 amounted to 292 ± 35 µM.

The same test, now with this note: read-out: [drawing 30] / IC50; nuclear extract.
For `COC(=O)c1cccc(-c2ccc(CN(C(=O)CN(C)S(=O)(=O)c3ccc(C)cc3)c3ccc(C(=O)O)c(O)c3)cc2)c1` [27la, 27 la], the IC50 amounted to 191 ± 8 µM.

Turning to `Cc1ccc(S(=O)(=O)N(C)CC(=O)N(Cc2ccc(-c3cccc(C(N)=O)c3)cc2)c2ccc(C(=O)O)c(O)c2)cc1` [27lc, 27 lc], the IC50 was greater than 300 µM.

In the case of `Cc1ccc(S(=O)(=O)N(C)CC(=O)N(Cc2ccc(-c3ccc(C#N)cc3)cc2)c2ccc(C(=O)O)c(O)c2)cc1` [27lf, 27 lf], the IC50 came out at 274 ± 10 µM.

As to `Cc1ccc(S(=O)(=O)N(C)CC(=O)N(Cc2ccc(-c3ccc(C(N)=O)cc3)cc2)c2ccc(C(=O)O)c(O)c2)cc1` [27lg, 27 lg], the IC50 is greater than 300 µM.

Still in this test, the particulars now being: read-out: [drawing 30] / IC50; nuclear extract; label printed 27 gld.
Regarding `COC(=O)c1ccc(-c2ccc(CN(C(=O)CN(C)S(=O)(=O)c3ccc(C)cc3)c3ccc(C(=O)O)c(O)c3)cc2)cc1` [27ld, 27 ld], the IC50 was 141 ± 10 µM.

Still in this test, the particulars now being: read-out: [drawing 31] / IC50; nuclear extract.
In the case of `Cc1ccc(S(=O)(=O)N(C)CC(=O)N(Cc2ccc(-c3ccc(-c4ccc(C(N)=O)cc4)cc3)cc2)c2ccc(C(=O)O)c(O)c2)cc1` [27nh, 27 nh], the IC50 turned out to be 43 ± 1.3 µM.

A further test shares this test system. The test is described as follows: in vitro Stat3 inhibition. The class given is biochemical. Conditions: assay not given.
With `O=C(O)c1ccc(N(Cc2ccc(C3CCCCC3)cc2)C(=O)CO)cc1O` [compound 47, primary alcohol 47], the IC50 is greater than 300 µM.
